Measured values as given in patent US20060069021A1, “Compositions and methods for intranasal administration of inactive analogs of PTH or inactivated preparations of PTH or PTH analogs” (Nastech Pharmaceutical Company Inc., priority 2004, published 2006).
“Also recorded” adds a separate entry of the source. Where two headings read alike, the source gives them in different places. Ends that are not written are not given here.

Experiments:
ciliary motility = details: cited from earlier work
[1] = rats, intraduodenal, with 1% (w/v) saline dispersion of polycarbophil; cited from earlier work
aminopeptidases = details: cited from earlier work
[2] = aqueous solution at physiologic pH; cited from earlier work
ovariectomized rat model = details: cited from earlier work
[3] = test system: Type II collagen production by human chondrocytes; test: Cartilage growth model: human chondrocytes in alginate beads, type II collagen ELISA; type: cell-based
Method: A. Approximately 3 million human chondrocyte cells (Cell Applications, Inc., San Diego, Calif.) encapsulated in alginate beads were received in 25 mL total volume of re-differentiated medium. Human chondrocytes in alginate beads produce their phenotypic markers such as aggrecan and type II collagen unlike in monolayer culture where chondrocytes lose their phenotypic characteristics and de-differentiate to fibroblast-like cells. Alginate based cell system was pursued to assess type II collagen expression as result of PTH dosing and therefore indication of any cartilage growth.
B. The cell-containing alginate bead suspension was transferred from cell culture flask to 50 mL conical tubes. A volume of 500 μL (˜62,500 cells per well) suspension was dispensed per well in 24-well plates. Samples were added to each well and final volume was brought to one milliliter with appropriate growth media. Controls included cells treated with re-differentiated media as positive control (Cell Applications, Inc., San Diego, Calif.), cells treated with chondrocyte growth media (Cell Applications, Inc., San Diego, Calif.) and basal media (Cell Applications, Inc., San Diego, Calif.) as negative controls.
C. Plates were swirled gently to allow homogenous mixture of each sample. Plates were placed in 37° C., 5% CO2 incubator. Human chondrocytes were grown for up to 12 days on longer. Appropriate growth media were replaced every second or third day. Alginate beads were prepared for type II collagen extraction on the last day of the experiment and extracted collagen was quantified using Native Type II Collagen Detection Kit (Chondrex Inc., Redmond Wash.). Pictures of cells immediately following the samples application and at several time points during the course of experiment were taken using the Olympus CK40 microscope and Nikon Cool Pix 4500 digital camera.
D. A capture ELISA kit (Native Type II Collagen Detection Kit, Chondrex Inc.) was used to measure native type II collagen. For measuring glycosaminoglycans, the kit used was Blyscan Sulfated Glycosaminoglycan Assay kit (Accurate Chemical & Scientific Corp.).
Next, the alginate-based cell system (cartilage growth model; refer to Example 2) was used to determine whether PTH dosing could stimulate chondrocytes to produce cartilage. […] Type II collagen is a major component of the extracelluar matrix of nasal cartilage and therefore was used as a molecular marker for cartilage growth in this assay.
The cell-containing alginate beads were incubated in the presence of various test solutions for 12 days at 37° C., 5% CO2. After the incubation, the alginate beads were processed using an extraction method in order to quantify the production of type II collagen.

[4] = anesthetized rats, cited from earlier work
[5] = test system: human chondrocyte cell monolayer; test: Cell proliferation model: human chondrocyte monolayer, MTT assay; type: cell-based; details: MTT at t=0 and after 4 days at 37° C./5% CO2
Method: A. Chondrocyte monolayers (Cell Applications, Inc., San Diego, Calif.) derived from normal human cartilage were adhered on to a 24-well plate and shipped following the first doubling. Approximately 16000 cells per well were expected at the time the cells were received. Two plates were treated identically with PTH and appropriate control samples. Controls included cells treated with chondrocyte growth media for positive control (Cell Applications, Inc., San Diego, Calif.) and cells treated with basal media for negative control (Cell Applications, Inc., San Diego, Calif.).
B. After the cells are treated, one of the two plates was analyzed for cell viability (t=0 sample). The second plate was placed at 37° C., 5% CO2 incubator for 4 days, after which the plates were analyzed using the MTT assay.
C. MTT is a cell-permeable tetrazolium salt which is reduced by mitochondrial dehydrogenase activity to an insoluble colored formazan by viable cells with intact mitochondrial function or by nonmitochondrial NAD(P)H dehydrogenase activity from cells capable of generating a respiratory burst. […] We have employed a MTT reagent kit prepared by MatTek Corp for their units as in indicator of cell proliferation.
A human chondrocyte cell monolayer model was employed to examine cell proliferation (refer to Example 2). […]

## 2-alkyl-4-hydroxyquinolines [pyo compound]
Ciliary motility
  concentration producing ciliostasis / inhibiting ciliary motility: 50 µg/mL

## 9-desglycinamide, 8-arginine vasopressin
[1]
  increase of bioavailability compared to aqueous solution without polymer: 3-5 fold

## CC(C)CC(N)B(O)O (stereo not drawn) [boro-leucine]
aminopeptidases
  effectiveness in enzyme inhibition relative to bestatin: more than 100 times
  effectiveness in enzyme inhibition relative to puromycin: more than 1,000 times

## CCN(CC)/[N+]([O-])=N/O.CCNCC [diethylamine/NO]
[2]
  rate (time) of NO release: < 3 min

## NCCN(CCN)/[N+]([O-])=N/O [diethylenetriamine/NO (DETANO), diethylenetriamine/NO]
[2]
  rate (time) of NO release: approximately 20 hours

## Ser Val Ser Glu Ile Gln Leu Met His Asn Leu Gly Lys His Leu Asn Ser Met Glu Arg Val Glu Trp Leu Arg Lys Lys Leu Gln Asp Val-NH2 (SVSEIQLMHNLGKHLNSMERVEWLRKKLQDV-NH2) [hPTH-(1-31)-NH2]
Ovariectomized rat model
  restoration of bone loss: fully active

## calcitonin
[3]; 20 μg calcitonin
  type II collagen production: no effect
[3]; 200 μg calcitonin
  type II collagen production: no effect

## human growth hormone: human growth hormone given nasally with or without N-acetyl-L-cysteine
[4]; with N-acetyl-L-cysteine (ACS)
  nasal bioavailability of human growth hormone: 12.2%
[4]; without N-acetyl-L-cysteine
  nasal bioavailability of human growth hormone: 7.5%

## insulin-like growth factor I [IGF-I]
[3]; 5 μg IGF-I (positive control)
  type II collagen production: greater than 1.2 pg per culture

B1: PTH: Parathyroid hormone peptide tested in Example 4; which form (1-84 or 1-34) is not stated (peptide, UniProt P01270 32-115, looked up)
Parathyroid hormone: SVSEIQLMHNLGKHLNSMERVEWLRKKLQDVHNFVALGAPLAPRDAGSQRPRKKEDNVLVESHEKSLGEADKADVNVLTKAKSQ
modifications: Parathyroid hormone
[5]; PTH in simple formulation (citrate buffer)
  chondrocyte proliferation (MTT assay): did not stimulate chondrocyte proliferation
[5]; PTH with permeation enhancers of Table 2
  chondrocyte proliferation (MTT assay): did not stimulate chondrocyte proliferation
[3]; 20 μg PTH in citrate buffer, 12 days at 37° C., 5% CO2
  type II collagen production: did not induce a substantial production of type II collagen
[3]; 20 μg PTH with permeation enhancers, 12 days
  type II collagen production: did not induce a substantial production of type II collagen
[3]; 200 μg PTH in simple formulation, 12 days
  type II collagen production: significant increase in type II collagen; also recorded: modest amounts of type II collagen production
[3]; high concentration of PTH (200 μg) with permeation enhancers, 12 days
  type II collagen production: essentially no production of type II collagen; also recorded: did not induce any cartilage growth
